Source: patent US20260325608A1, “PEPTIDES FOR USE IN THE TREATMENT OF SARCOMA” (PHARIS BIOTEC GMBH, priority 2023, published 2026)
One block for each compound: values may come before it. No end group written: not given here.

Columns and labels:
[1] = Isoelectric point of the peptide; type: physicochemical
osteosarcoma = test: Compassionate use treatment of an osteosarcoma patient with intranasal peptide (Example 5); type: in vivo; details: three times a day
Experimental: A patient suffering from osteosarcoma was treated under the terms of compassionate use.
The peptide IVRYTKKVPQVS (SEQ ID NO: 21) was provided in a citrate/bicarbonate buffer (Pharmacopoeia Europaea, Ph. Eur.), in a concentration of 1 mg/mL (1 mg of the peptide in 1 mL of the buffer). This composition was administered intranasally as a nasal spray. The nasal spray was administered three times a day (morning, noon, evening), two strokes into each nasal cavity, for six weeks.
The course of the disease/clinical picture of the patient was monitored via an immune panel measurement, once a week. In blood count measurements, the numbers of erythrocytes, thrombocytes, etc. were determined.

childhood sarcomas = details: in vivo; cited from earlier work

- isoelectric point (pI) [1]: 10.3
Compound: LVRYTKKVPQVSTPTL [ALB408-423, LVRYTKKVPQVSTPTL]

Compound: IVRYTKKVPQVS [SEQ ID NO: 21]
- side effects (osteosarcoma; 1 mg/mL nasal spray, six weeks): no side effects were observed
- regression of the tumor (MRT measurements) (osteosarcoma; 1 mg/mL nasal spray, six weeks, especially in the area of the spine and the vertebral holes): regression of the tumor
- blood picture (osteosarcoma; after four weeks of treatment, 1 mg/mL nasal spray in citrate/bicarbonate buffer, two strokes into each nasal cavity): normalized
- pain (osteosarcoma; after six weeks of treatment, 1 mg/mL nasal spray, severe pain before start): pain-free
- mobility of the patient (osteosarcoma; during six weeks of treatment, 1 mg/mL nasal spray, patient was unable to move before start): restored

Compound: O=P1(N(CCCl)CCCl)NCCCO1 (stereo not shown) [cyclophosphamide]
- anti-tumor efficacy (childhood sarcomas): good anti-tumor efficacy
